Assay results reported in US20240407990A1, “SYNERGISTIC ANTIOXIDANT COMPOSITIONS” (The Procter & Gamble Company, priority 2023, published 2024).

Experiments:
keratinocytes = assay: Peroxide-Induced Keratinocyte Stress (ATP levels post-peroxide exposure); format: cell-based; set-up: key: net luminescence counts (treatment minus vehicle control)
From the text: This methodology is further discussed in Assessing bioenergetic function in response to oxidative stress by metabolic profiling. Free Radical Biology and Medicine; […], Benavides […], Zelickson […]. Zou L, Chatham J C, Hill B G, Zhang […]; 2011 Nov. 1; 51(9):1621-35, incorporated herein by reference, as well as in Proceedings of the National Academy of Sciences of the United States of America; Miyoshi N, Oubrahim H, Chock […] . . . 2006 Feb. 7; 103(6):1727-31, incorporated herein by reference. […] Hydrogen peroxide is a well-known ROS as is commonly used as a surrogate to analyze the effects of a variety of ROS. In this test, keratinocytes are cultured (passage <8) in T150 flasks using Epi-Life medium (Calcium Free and Phenol Red Free, supplemented with penicillin/streptomycin and keratinocytes growth supplement, Invitrogen cat #[…]500) in a CO2 incubator (Forma 51030532, Marietta OH). The keratinocytes are then plated into 96 well plates, 10,000 cells/well, 0.2 ml media. […] Luminescence is measured on a SpectraMax M3 (Molecular Devices, Sunnyvale, CA). Net luminescence is calculated by subtracting the luminescence counts from the vehicle control from the luminescence counts from the treatment groups. […] In each case, the arithmetic sum of the measured anti-oxidant activity of the three individual components is compared to the measured anti-oxidant activity of the triad combination of the same levels. Experiments are done in triplicate enabling the statistical determination (by T-test) of significance of whether synergism (observed/calculated ratio is greater than 1) is observed.

skin fibroblasts = skin fibroblasts in vitro; cited from earlier work
skin = details: cited from earlier work

## CC(C)(CO)[C@@H](O)C(=O)NCCCO [Panthenol, panthenol]
keratinocytes; Panthenol 0.005% alone, post-peroxide, series with PO 0.5%
  Mean Keratinocyte ATP Level: 193.3
keratinocytes; Panthenol 0.005% alone, post-peroxide, series with PO 0.8%
  Mean Keratinocyte ATP Level: 170.0
keratinocytes; Panthenol 0.01% alone, post-peroxide, series with PO 0.5%
  Mean Keratinocyte ATP Level: 473.3
keratinocytes; Panthenol 0.01% alone, post-peroxide, series with PO 0.8%
  Mean Keratinocyte ATP Level: 280.0
keratinocytes; Panthenol 0.05% alone, post-peroxide, series with PO 0.5%
  Mean Keratinocyte ATP Level: 617.3
keratinocytes; Panthenol 0.05% alone, post-peroxide, series with PO 0.8%
  Mean Keratinocyte ATP Level: 550.7
keratinocytes; Panthenol 0.1% alone, post-peroxide, series with PO 0.5%
  Mean Keratinocyte ATP Level: 1234.3
keratinocytes; Panthenol 0.1% alone, post-peroxide, series with PO 0.8%
  Mean Keratinocyte ATP Level: 1227.7
keratinocytes; Panthenol 0.2% alone, post-peroxide, series with PO 0.5%
  Mean Keratinocyte ATP Level: 5282.0
keratinocytes; Panthenol 0.2% alone, post-peroxide, series with PO 0.8%
  Mean Keratinocyte ATP Level: 5711.7
Skin fibroblasts
  formation of reactive oxygen species (ROS): inhibit

## Cc1cc(CC(C)CC(C)(C)C)n(O)c(=O)c1.NCCO (stereo not drawn) [Piroctone Olamine, piroctone olamine]
keratinocytes; Piroctone Olamine 0.5% alone, post-peroxide exposure
  Mean Keratinocyte ATP Level: 13548.3
keratinocytes; Piroctone Olamine 0.8% alone, post-peroxide exposure
  Mean Keratinocyte ATP Level: 18548.3

## NC(=O)c1cccnc1 [Niacinamide, niacinamide]
keratinocytes; Niacinamide 0.005% alone, post-peroxide, series with PO 0.5%
  Mean Keratinocyte ATP Level: 100.3
keratinocytes; Niacinamide 0.005% alone, post-peroxide, series with PO 0.8%
  Mean Keratinocyte ATP Level: 32.7
keratinocytes; Niacinamide 0.01% alone, post-peroxide, series with PO 0.5%
  Mean Keratinocyte ATP Level: 154.3
keratinocytes; Niacinamide 0.01% alone, post-peroxide, series with PO 0.8%
  Mean Keratinocyte ATP Level: 85.7
keratinocytes; Niacinamide 0.05% alone, post-peroxide, series with PO 0.5%
  Mean Keratinocyte ATP Level: 341.0
keratinocytes; Niacinamide 0.05% alone, post-peroxide, series with PO 0.8%
  Mean Keratinocyte ATP Level: 465.0
keratinocytes; Niacinamide 0.1% alone, post-peroxide, series with PO 0.5%
  Mean Keratinocyte ATP Level: 1142.0
keratinocytes; Niacinamide 0.1% alone, post-peroxide, series with PO 0.8%
  Mean Keratinocyte ATP Level: 875.0
keratinocytes; Niacinamide 1.0% alone, post-peroxide, series with PO 0.5%
  Mean Keratinocyte ATP Level: 9208.3
keratinocytes; Niacinamide 1.0% alone, post-peroxide, series with PO 0.8%
  Mean Keratinocyte ATP Level: 6003.7
keratinocytes; Niacinamide 1.8% alone, post-peroxide, series with PO 0.5%
  Mean Keratinocyte ATP Level: 12314.3
keratinocytes; Niacinamide 1.8% alone, post-peroxide, series with PO 0.8%
  Mean Keratinocyte ATP Level: 11751.3
skin
  lipoperoxide generation in skin: inhibit
  oxidative damage caused by pollutant particulate matter: inhibit
